We go through 17 compounds from patent publication US11464770B2, “Anticancer pharmaceutical composition” (NATIONAL CANCER CENTER, priority 2016, dated 2022).

Like-named read-outs stand apart in the source and are kept apart here. A value given as a limit tells only on which side of the number the result lay.

This assay deals with lung cancer cell lines (e.g. NCI-H23, NCI-H1229). The assay can be described thus: Cell based assay, cell viability (CellTiter-Glo), lung cancer cell lines. The settings on record: Homo sapiens, 72 hours treatment, CellTiter-Glo. As for the experimental part: Commercially available bladder cancer, prostate cancer, lung cancer, breast cancer, blood cancer, pancreatic cancer, colorectal cancer, brain cancer, neuroblastoma, melanoma, liver cancer, cervical carcinoma, ovarian cancer, renal cancer, and papilloma cell lines were each treated with trypsin-EDTA and cultured, followed by being seeded in each well of a 96 well plate. After 24 hours of treatment at constant temperature, the respective cells were treated with the candidate compound so that a final concentration became 0 to 2 μM. The treated cells were additionally cultured for 72 hours, and cell viability was measured by using an ATP detection method (CellTiter-Glo® Luminescent Cell Viability Assay, Promega).
Background: Cellular ATP, detected with luciferase, serves as a proxy for viable cell number.

[1] abbreviates: A549 cells, read-out: IC50, lung cancer cell line A549.
Where [2] appears, read: DMS 114 cells, read-out: IC50, lung cancer cell line DMS 114.
The mark [3] stands for this setting: NCI-H23 cells, read-out: IC50, lung cancer cell line NCI-H23.
[4] abbreviates: NCI-H460 cells, read-out: IC50, lung cancer cell line NCI-H460.
Where [5] appears, read: NCI-H522 cells, read-out: IC50, lung cancer cell line NCI-H522.
Where [6] appears, read: NCI-H1299 cells, read-out: IC50, lung cancer cell line NCI-H1299.
The mark [7] stands for this setting: NCI-H1437 cells, read-out: IC50, lung cancer cell line NCI-H1437.

`CC(=O)c1c([S+](C)[O-])[nH]c2c(Br)ccc(Cl)c2c1=O` (stereo not shown) [Compound 1, 3-acetyl-8-bromo-5-chloro-2-(methylsulfinyl)quinolin-4(1H)-one]: the IC50 – broadly, the concentration needed to halve the response being measured – by setting is: under setting [1], above 2 µM; under setting [2], above 2 µM; (MRC-5 cells, read-out: IC50) 1.34 µM; under setting [3], 1.34 µM; under setting [4], above 2 µM; under setting [5], above 2 µM. The IC50 was 1.88 µM under setting [6] and above 10 µM under setting [7].
For `CSc1[nH]c2c(Br)ccc(Cl)c2c(=O)c1C(C)=O` [Compound 2, 3-acetyl-8-bromo-5-chloro-2-(methylthio)quinolin-4(1H)-one], the half-inhibitory concentration (IC50) is above 2 µM under setting [1]; above 2 µM under setting [2]; above 2 µM (MRC-5 cells, read-out: IC50); above 2 µM under setting [3]; above 2 µM under setting [4]; above 2 µM under setting [5]. Moreover, the half-maximal inhibitory concentration (IC50) was above 2 µM under setting [6] and above 10 µM under setting [7].
On to `CC(=O)c1c(SCc2ccccc2)[nH]c2c(Br)ccc(Cl)c2c1=O` [Compound 3, 3-acetyl-2-(benzylthio)-8-bromo-5-chloroquinolin-4(1H)-one], for which the IC50 by setting is: under setting [1], above 2 µM; under setting [2], above 2 µM; (MRC-5 cells, read-out: IC50) above 2 µM; under setting [3], above 2 µM; under setting [4], above 2 µM; under setting [5], above 2 µM. Besides, the IC50 was above 2 µM under setting [6] and above 10 µM under setting [7].
Take `CSc1c(C(C)=O)c(=O)c2c(Cl)ccc(Br)c2n1C` [Compound 5, 3-acetyl-8-bromo-5-chloro-1-methyl-2-(methylthio)quinolin-4(1H)-one]: the 50% inhibitory concentration (IC50) under setting [1] was above 2 µM; the IC50 under setting [2] is above 2 µM; the half-maximal inhibitory concentration (IC50) (MRC-5 cells, read-out: IC50) was above 2 µM; the IC50 under setting [3] is above 2 µM; the half-maximal inhibitory concentration (IC50) under setting [4] is above 2 µM; the 50% inhibitory concentration (IC50) under setting [5] was above 2 µM. The half-inhibitory concentration (IC50) is, setting by setting: under setting [6], above 2 µM; under setting [7], above 10 µM.
Take `CC(=O)c1c([S+](C)[O-])[nH]c2c(Cl)ccc(Cl)c2c1=O` (stereo not shown) [Compound 6, 3-acetyl-5,8-dichloro-2-(methylsulfinyl)quinolin-4(1H)-one]: the IC50 is above 2 µM under setting [1]; above 2 µM under setting [2]; above 2 µM (MRC-5 cells, read-out: IC50); 1.31 µM under setting [3]; above 2 µM under setting [4]; above 2 µM under setting [5]. Moreover, the IC50 is, setting by setting: under setting [6], 1.84 µM; under setting [7], above 10 µM.
In the case of `CSc1c(C(C)=O)c(=O)c2cc(F)ccc2n1C` [Compound 7, 3-acetyl-6-fluoro-1-methyl-2-(methylthio)quinolin-4(1H)-one], the half-maximal inhibitory concentration (IC50) under setting [1] is above 2 µM; the half-maximal inhibitory concentration (IC50) under setting [2] is above 2 µM; the IC50 (MRC-5 cells, read-out: IC50) was above 2 µM; the IC50 under setting [3] was above 2 µM; the IC50 under setting [4] is above 2 µM; the IC50 under setting [5] is above 2 µM. In addition, the IC50 reads like this: under setting [6], above 2 µM; under setting [7], above 10 µM.
On to `CSc1[nH]c2ccc(F)cc2c(=O)c1C(C)=O` [Compound 8, 1-(6-fluoro-4-hydroxy-2-(methylthio)quinolin-3-yl)ethan-1-one], for which the IC50 under setting [1] was above 2 µM; the IC50 under setting [2] was above 2 µM; the IC50 (MRC-5 cells, read-out: IC50) was above 2 µM; the 50% inhibitory concentration (IC50) under setting [3] was above 2 µM; the half-inhibitory concentration (IC50) under setting [4] was above 2 µM; the IC50 under setting [5] was above 2 µM. The concentration for half-maximal inhibition (IC50) is above 2 µM under setting [6] and above 10 µM under setting [7].
As to `CC(=O)c1c([S+](C)[O-])n(C(=O)c2ccc(Br)cc2)c2c(Br)ccc(Cl)c2c1=O` (stereo not shown) [Compound 9, 3-acetyl-8-bromo-1-(4-bromobenzoyl)-5-chloro-2-(methylsulfinyl)quinolin-4(1H)-one], the half-maximal inhibitory concentration (IC50) was above 2 µM under setting [1]; above 2 µM under setting [2]; above 2 µM (MRC-5 cells, read-out: IC50); 0.9 µM under setting [3]; above 2 µM under setting [4]; above 2 µM under setting [5]. Also, the IC50 under setting [6] stood at 1.26 µM and the IC50 under setting [7] was above 10 µM.
As for `CC(=O)c1c(SCc2ccc(Cl)cc2)[nH]c2c(Br)ccc(Cl)c2c1=O` [Compound 10, 3-acetyl-8-bromo-5-chloro-2-((4-chlorobenzyl)thio)quinolin-4(1H)-one], the half-inhibitory concentration (IC50) is above 2 µM under setting [1]; above 2 µM under setting [2]; above 2 µM (MRC-5 cells, read-out: IC50); above 2 µM under setting [3]; above 2 µM under setting [4]; above 2 µM under setting [5]. Moreover, the IC50 under setting [6] was above 2 µM and the half-inhibitory concentration (IC50) under setting [7] is above 10 µM.
Regarding `CC(=O)c1c([S+]([O-])Cc2ccc(Cl)cc2)[nH]c2c(Br)ccc(Cl)c2c1=O` (stereo not shown) [Compound 11, 3-acetyl-8-bromo-5-chloro-2-((4-chlorobenzyl)sulfinyl)quinolin-4(1H)-one], the IC50 was above 2 µM under setting [1]; above 2 µM under setting [2]; above 2 µM (MRC-5 cells, read-out: IC50); 1.55 µM under setting [3]; above 2 µM under setting [4]; above 2 µM under setting [5]. The IC50 was above 2 µM under setting [6] and above 10 µM under setting [7].
Take `CC(=O)c1c(Sc2ccccc2)[nH]c2c(Br)ccc(Cl)c2c1=O` [Compound 12, 3-acetyl-8-bromo-5-chloro-2-(phenylthio)quinolin-4(1H)-one]: the IC50 was above 2 µM under setting [1]; above 2 µM under setting [2]; above 2 µM (MRC-5 cells, read-out: IC50); above 2 µM under setting [3]; above 2 µM under setting [4]; above 2 µM under setting [5]. Further, the IC50 runs as follows: under setting [6], above 2 µM; under setting [7], above 10 µM.
Consider `CC(=O)c1c([S+]([O-])c2ccccc2)[nH]c2c(Br)ccc(Cl)c2c1=O` (stereo not shown) [Compound 13, 3-acetyl-8-bromo-5-chloro-2-(phenylsulfinyl)quinolin-4(1H)-one], for which the half-maximal inhibitory concentration (IC50) runs as follows: under setting [1], above 2 µM; under setting [2], above 2 µM; (MRC-5 cells, read-out: IC50) above 2 µM; under setting [3], above 2 µM; under setting [4], above 2 µM; under setting [5], above 2 µM. Moreover, the 50% inhibitory concentration (IC50) reads like this: under setting [6], above 2 µM; under setting [7], above 10 µM.
In the case of `COc1ccccc1Sc1[nH]c2c(Br)ccc(Cl)c2c(=O)c1C(C)=O` [Compound 14, 3-acetyl-8-bromo-5-chloro-2-((2-methoxyphenyl)thio)quinolin-4(1H)-one], the IC50 under setting [1] is above 2 µM; the IC50 under setting [2] is above 2 µM; the concentration for half-maximal inhibition (IC50) (MRC-5 cells, read-out: IC50) is above 2 µM; the IC50 under setting [3] is above 2 µM; the IC50 under setting [4] was above 2 µM; the IC50 under setting [5] was above 2 µM. In addition, the IC50 under setting [6] was above 2 µM and the IC50 under setting [7] is above 10 µM.
Turning to `COc1ccccc1[S+]([O-])c1[nH]c2c(Br)ccc(Cl)c2c(=O)c1C(C)=O` (stereo not shown) [Compound 15, 3-acetyl-8-bromo-5-chloro-2-((2-methoxyphenyl)sulfinyl)quinolin-4(1H)-one], the 50% inhibitory concentration (IC50) under setting [1] is above 2 µM; the half-maximal inhibitory concentration (IC50) under setting [2] is above 2 µM; the IC50 (MRC-5 cells, read-out: IC50) was above 2 µM; the IC50 under setting [3] came out at 1.56 µM; the IC50 under setting [4] was above 2 µM; the IC50 under setting [5] is above 2 µM. Moreover, the IC50 is, setting by setting: under setting [6], above 2 µM; under setting [7], above 10 µM.
Turning to `CC(=O)c1c(Sc2ccc(Br)cc2)[nH]c2c(Br)ccc(Cl)c2c1=O` [Compound 16, 3-acetyl-8-bromo-2-((4-bromophenyl)thio)-5-chloroquinolin-4(1H)-one], the IC50 runs as follows: under setting [1], above 2 µM; under setting [2], above 2 µM; (MRC-5 cells, read-out: IC50) above 2 µM; under setting [3], above 2 µM; under setting [4], above 2 µM; under setting [5], above 2 µM. The IC50 runs as follows: under setting [6], above 2 µM; under setting [7], above 10 µM.
Regarding `CC(=O)c1c([S+]([O-])c2ccc(Br)cc2)[nH]c2c(Br)ccc(Cl)c2c1=O` (stereo not shown) [Compound 17, 3-acetyl-8-bromo-2-((4-bromophenyl)sulfinyl)-5-chloroquinolin-4(1H)-one], the IC50 is, setting by setting: under setting [1], above 2 µM; under setting [2], above 2 µM; (MRC-5 cells, read-out: IC50) above 2 µM; under setting [3], above 2 µM; under setting [4], above 2 µM; under setting [5], above 2 µM. Further, the IC50 under setting [6] was above 2 µM and the half-inhibitory concentration (IC50) under setting [7] was above 10 µM.
In the case of `CSc1c(C(C)=O)c(=O)c2c(Cl)ccc(Br)c2n1C(C)=O` [Compound 18, 1,1′-(8-bromo-5-chloro-2-(methylthio)-4-oxoquinoline-1,3(4H)-diyl)bis(ethan-1-one)], the concentration for half-maximal inhibition (IC50) reads like this: under setting [1], above 2 µM; under setting [2], above 2 µM; (MRC-5 cells, read-out: IC50) above 2 µM; under setting [3], above 2 µM; under setting [4], above 2 µM; under setting [5], above 2 µM. Moreover, the concentration for half-maximal inhibition (IC50) by setting is: under setting [6], above 2 µM; under setting [7], above 10 µM.
